For one molecule, Ki and Ki app results are on record in ChEMBL document CHEMBL1138088, “Design and synthesis of selective keto-1,2,4-oxadiazole-based tryptase inhibitors” (Bioorg Med Chem Lett, 2006).

For one assay, the target named is Coagulation factor X (Homo sapiens, UniProt P00742). The assay can be described thus: Inhibition of factor 10a. Conditions: read-out: Ki app.
A short description of assay [1]: Inhibition of elastase. Also on record: species or system Homo sapiens. Conditions: read-out: Ki app.
The target in a further assay is T1, Chymase (Homo sapiens, UniProt P23946).
T1 sequence (P23946 whole entry): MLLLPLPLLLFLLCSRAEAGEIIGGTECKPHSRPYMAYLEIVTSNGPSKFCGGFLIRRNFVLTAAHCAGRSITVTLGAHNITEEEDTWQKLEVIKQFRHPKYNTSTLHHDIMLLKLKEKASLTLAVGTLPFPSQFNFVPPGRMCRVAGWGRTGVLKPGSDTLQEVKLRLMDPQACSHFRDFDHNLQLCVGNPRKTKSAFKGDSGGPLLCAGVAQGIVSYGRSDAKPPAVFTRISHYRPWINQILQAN
The assay can be described thus: Inhibition of chymase. Conditions: read-out: Ki app.

In the next assay the target is Chymotrypsinogen B (Homo sapiens, UniProt P17538). In words: Inhibition of chymotrypsin. Conditions: read-out: Ki app.
The next assay concerns the target Plasma kallikrein (Homo sapiens, UniProt P03952). In words: Inhibition of kallikrein. Conditions: read-out: Ki app.
For another assay, the target named is Trypsin (Homo sapiens, UniProt P07477+P07478+P35030). In words: Inhibition of trypsin. The format is protein assay.
In the next assay the target is T2, Cathepsin G (Homo sapiens, UniProt P08311).
T2 sequence (P08311 whole entry): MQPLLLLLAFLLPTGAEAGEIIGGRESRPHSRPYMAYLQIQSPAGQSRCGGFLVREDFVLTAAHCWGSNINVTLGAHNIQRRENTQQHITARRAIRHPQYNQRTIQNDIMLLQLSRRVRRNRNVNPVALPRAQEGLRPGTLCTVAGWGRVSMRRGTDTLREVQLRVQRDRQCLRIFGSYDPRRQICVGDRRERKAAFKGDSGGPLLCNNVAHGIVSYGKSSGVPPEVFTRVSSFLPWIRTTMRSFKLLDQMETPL
The assay can be described thus: Inhibition of cathepsin G. Conditions: read-out: Ki app.

Assay [2] addresses Vitamin K-dependent protein C (Homo sapiens, UniProt P04070). In words: Inhibition of APC. Conditions: read-out: Ki app.
Assay [3] deals with Urokinase-type plasminogen activator (Homo sapiens, UniProt P00749). The assay can be described thus: Inhibition of urokinase. Conditions: read-out: Ki app.
For a further assay, the target named is Prothrombin (Homo sapiens, UniProt P00734). In words: Inhibition of thrombin. Conditions: read-out: Ki app.
The target of the next assay is Coagulation factor IX (Homo sapiens, UniProt P00740). The assay can be described thus: Inhibition of factor 9a. Conditions: read-out: Ki app.
The target in the next assay is Plasminogen (Homo sapiens, UniProt P00747). The assay can be described thus: Inhibition of plasmin. Conditions: read-out: Ki app.
For another assay, the target named is T3, Coagulation factor VII (Homo sapiens, UniProt P08709).
T3 sequence (P08709 whole entry): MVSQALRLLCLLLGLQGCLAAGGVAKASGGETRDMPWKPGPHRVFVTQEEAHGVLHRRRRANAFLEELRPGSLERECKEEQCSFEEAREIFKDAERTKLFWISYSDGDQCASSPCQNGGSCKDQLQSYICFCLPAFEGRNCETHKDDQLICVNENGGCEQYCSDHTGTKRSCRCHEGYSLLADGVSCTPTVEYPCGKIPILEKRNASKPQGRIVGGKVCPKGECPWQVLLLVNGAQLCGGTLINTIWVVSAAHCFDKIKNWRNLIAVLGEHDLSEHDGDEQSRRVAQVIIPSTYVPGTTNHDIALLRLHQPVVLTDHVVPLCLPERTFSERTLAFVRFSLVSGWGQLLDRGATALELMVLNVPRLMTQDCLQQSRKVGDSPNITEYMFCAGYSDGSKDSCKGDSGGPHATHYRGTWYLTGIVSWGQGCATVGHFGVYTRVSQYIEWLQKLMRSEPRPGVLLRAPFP
In words: Inhibition of factor 7a. Conditions: read-out: Ki app.

For another assay, the target named is T4, Granzyme K (Homo sapiens, UniProt P49863).
T4 sequence (P49863 whole entry): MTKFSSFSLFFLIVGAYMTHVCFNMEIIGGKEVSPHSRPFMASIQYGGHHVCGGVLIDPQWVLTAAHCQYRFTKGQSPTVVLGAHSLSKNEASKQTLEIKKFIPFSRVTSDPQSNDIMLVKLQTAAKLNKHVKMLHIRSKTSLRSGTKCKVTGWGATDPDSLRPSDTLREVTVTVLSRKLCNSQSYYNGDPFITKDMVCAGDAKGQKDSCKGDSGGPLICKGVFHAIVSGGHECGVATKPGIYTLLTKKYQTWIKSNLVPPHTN
The assay can be described thus: Inhibition of granzyme K. Conditions: read-out: Ki app.

Another assay concerns the target Coagulation factor XI (Homo sapiens, UniProt P03951). In words: Inhibition of factor 11a. Conditions: read-out: Ki app.

Plasma kallikrein, sequence (P03952 20-390 limits assumed): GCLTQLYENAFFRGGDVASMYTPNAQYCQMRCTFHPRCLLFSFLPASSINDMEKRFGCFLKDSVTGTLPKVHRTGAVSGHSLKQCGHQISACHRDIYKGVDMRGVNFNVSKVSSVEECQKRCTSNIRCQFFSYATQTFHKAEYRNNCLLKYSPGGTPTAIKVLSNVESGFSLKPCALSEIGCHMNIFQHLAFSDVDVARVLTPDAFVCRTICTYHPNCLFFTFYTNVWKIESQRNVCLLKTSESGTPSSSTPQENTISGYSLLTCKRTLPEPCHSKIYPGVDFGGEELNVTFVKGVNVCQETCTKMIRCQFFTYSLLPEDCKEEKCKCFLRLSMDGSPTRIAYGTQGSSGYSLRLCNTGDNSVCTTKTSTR
Plasma kallikrein, sequence (P03952 391-638 limits assumed): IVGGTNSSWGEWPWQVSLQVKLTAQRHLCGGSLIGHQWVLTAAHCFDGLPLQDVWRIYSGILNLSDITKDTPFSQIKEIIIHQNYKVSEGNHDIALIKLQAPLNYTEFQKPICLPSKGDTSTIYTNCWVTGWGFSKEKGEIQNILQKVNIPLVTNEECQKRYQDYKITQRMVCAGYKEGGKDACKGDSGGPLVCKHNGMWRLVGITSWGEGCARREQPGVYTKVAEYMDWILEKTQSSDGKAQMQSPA
Coagulation factor XI, sequence (P03951 19-387 limits assumed): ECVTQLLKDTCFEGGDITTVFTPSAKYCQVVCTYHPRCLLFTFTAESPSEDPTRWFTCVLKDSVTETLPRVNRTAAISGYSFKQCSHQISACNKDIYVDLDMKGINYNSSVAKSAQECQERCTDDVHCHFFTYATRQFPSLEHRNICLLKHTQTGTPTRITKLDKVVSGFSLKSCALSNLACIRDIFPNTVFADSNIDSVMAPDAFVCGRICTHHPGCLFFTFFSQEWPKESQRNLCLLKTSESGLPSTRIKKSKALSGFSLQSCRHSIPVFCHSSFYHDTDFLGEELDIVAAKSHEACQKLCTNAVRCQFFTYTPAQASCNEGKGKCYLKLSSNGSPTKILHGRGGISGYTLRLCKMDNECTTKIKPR
Coagulation factor XI, sequence (P03951 388-625 limits assumed): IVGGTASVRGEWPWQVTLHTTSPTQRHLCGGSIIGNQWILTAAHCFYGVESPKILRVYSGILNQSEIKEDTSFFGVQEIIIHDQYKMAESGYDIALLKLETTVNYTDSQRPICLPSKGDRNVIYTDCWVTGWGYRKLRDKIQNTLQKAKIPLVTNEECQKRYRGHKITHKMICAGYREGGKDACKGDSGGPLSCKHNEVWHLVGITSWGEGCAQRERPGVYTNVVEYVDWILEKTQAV
Coagulation factor IX, sequence (P00740 47-191 limits assumed): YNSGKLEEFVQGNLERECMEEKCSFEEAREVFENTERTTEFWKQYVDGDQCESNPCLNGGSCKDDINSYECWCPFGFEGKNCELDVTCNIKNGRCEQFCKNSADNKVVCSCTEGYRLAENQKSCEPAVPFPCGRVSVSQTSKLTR
Coagulation factor IX, sequence (P00740 227-461 limits assumed): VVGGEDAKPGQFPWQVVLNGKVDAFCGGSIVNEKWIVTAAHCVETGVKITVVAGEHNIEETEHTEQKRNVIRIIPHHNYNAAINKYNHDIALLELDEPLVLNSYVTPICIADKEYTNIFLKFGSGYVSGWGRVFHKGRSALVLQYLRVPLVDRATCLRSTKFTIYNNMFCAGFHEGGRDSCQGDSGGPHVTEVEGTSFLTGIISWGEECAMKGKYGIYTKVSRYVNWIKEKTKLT
Plasminogen, sequence (P00747 97-580 limits assumed): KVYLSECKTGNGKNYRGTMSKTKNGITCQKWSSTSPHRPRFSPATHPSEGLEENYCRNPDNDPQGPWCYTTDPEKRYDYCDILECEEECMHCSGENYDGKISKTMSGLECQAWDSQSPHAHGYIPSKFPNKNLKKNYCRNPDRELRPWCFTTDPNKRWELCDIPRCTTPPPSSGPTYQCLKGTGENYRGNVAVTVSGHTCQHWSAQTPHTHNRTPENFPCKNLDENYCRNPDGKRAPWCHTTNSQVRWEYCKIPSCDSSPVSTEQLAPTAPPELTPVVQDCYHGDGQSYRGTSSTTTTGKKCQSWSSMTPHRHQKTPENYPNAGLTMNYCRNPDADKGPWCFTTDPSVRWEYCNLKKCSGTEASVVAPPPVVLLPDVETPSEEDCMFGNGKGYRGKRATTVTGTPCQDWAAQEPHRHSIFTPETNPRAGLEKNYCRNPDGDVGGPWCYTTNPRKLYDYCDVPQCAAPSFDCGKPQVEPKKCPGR
Plasminogen, sequence (P00747 581-810 limits assumed): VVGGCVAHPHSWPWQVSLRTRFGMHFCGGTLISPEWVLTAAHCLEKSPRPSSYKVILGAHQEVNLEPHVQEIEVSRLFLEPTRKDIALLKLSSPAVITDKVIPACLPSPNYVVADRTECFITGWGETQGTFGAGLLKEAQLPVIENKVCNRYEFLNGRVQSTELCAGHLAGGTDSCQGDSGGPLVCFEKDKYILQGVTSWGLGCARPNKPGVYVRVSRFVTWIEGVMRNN
Chymotrypsinogen B, sequence (P17538 34-164 limits assumed, other chains not shown): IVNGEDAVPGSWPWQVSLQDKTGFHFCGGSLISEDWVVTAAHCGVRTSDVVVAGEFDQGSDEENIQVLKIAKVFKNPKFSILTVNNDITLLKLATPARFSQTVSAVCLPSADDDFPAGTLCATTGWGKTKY
Chymotrypsinogen B, sequence (P17538 167-263 limits assumed, other chains not shown): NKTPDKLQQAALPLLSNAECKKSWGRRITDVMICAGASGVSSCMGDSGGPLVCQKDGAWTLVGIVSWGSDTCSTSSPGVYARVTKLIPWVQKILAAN
Vitamin K-dependent protein C, sequence (P04070 43-197 limits assumed): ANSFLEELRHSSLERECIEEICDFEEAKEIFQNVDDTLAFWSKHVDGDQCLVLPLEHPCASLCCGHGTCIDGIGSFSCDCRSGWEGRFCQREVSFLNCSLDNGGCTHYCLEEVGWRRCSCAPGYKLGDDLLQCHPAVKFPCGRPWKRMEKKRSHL
Vitamin K-dependent protein C, sequence (P04070 212-461 limits assumed): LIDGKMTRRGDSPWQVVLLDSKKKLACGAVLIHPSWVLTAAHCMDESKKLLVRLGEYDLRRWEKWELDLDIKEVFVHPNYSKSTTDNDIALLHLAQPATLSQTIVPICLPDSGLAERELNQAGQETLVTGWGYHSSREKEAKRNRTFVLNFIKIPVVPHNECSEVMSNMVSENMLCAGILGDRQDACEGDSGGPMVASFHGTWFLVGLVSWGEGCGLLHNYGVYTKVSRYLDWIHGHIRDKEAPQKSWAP
Coagulation factor X, sequence (P00742 41-179 limits assumed): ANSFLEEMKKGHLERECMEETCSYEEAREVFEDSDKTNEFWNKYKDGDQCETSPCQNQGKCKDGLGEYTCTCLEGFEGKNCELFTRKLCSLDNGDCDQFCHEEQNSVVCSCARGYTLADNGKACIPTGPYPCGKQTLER
Coagulation factor X, sequence (P00742 235-488 limits assumed): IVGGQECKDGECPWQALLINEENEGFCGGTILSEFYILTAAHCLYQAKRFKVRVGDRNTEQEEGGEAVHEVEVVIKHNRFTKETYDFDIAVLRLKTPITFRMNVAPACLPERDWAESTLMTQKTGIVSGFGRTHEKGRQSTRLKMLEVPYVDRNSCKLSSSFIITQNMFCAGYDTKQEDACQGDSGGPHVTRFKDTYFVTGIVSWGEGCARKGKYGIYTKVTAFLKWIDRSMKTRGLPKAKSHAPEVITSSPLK

Turning to `Cl.NCCCC[C@H](NC(=O)c1ccc(F)c(F)c1)C(=O)c1noc(Cc2ccc(OCCc3ccc(Cl)c(Cl)c3)cc2)n1`, the Ki on Coagulation factor X was over 150 µM; in assay [1], over 150 µM; at Chymase it was over 150 µM; at Chymotrypsinogen B, over 150 µM; on Plasma kallikrein, 83 µM; on Cathepsin G, over 150 µM. For the same molecule, the Ki was over 150 µM in assay [2]; over 150 µM in assay [3]; over 150 µM at Prothrombin; over 150 µM at Coagulation factor IX; 0.91 µM at Plasminogen; over 150 µM at Coagulation factor VII. The Ki at Granzyme K and on Coagulation factor XI was over 150 µM throughout. The Ki app at Trypsin came to 3.3 µM.
